The values that follow come from patent US20250161297A1, “COMPOSITIONS AND METHODS FOR INHIBITING FSP1” (THE REGENTS OF THE UNIVERSITY OF CALIFORNIA, priority 2022, published 2025).

The EC50 is the concentration giving half of the maximal effect.

Test [1] has as its system H460^C cells. Description: GPX4 inhibitor-induced cell death with FSEN1 co-treatment. Type of test: cell-based. Here is the method:
(§1) For cell-based screen, cells were seeded in triplicate at a density of 500-750 cells per 50 μL per well in black 384-well plates (NUNC) and (Corning) 24 hr before start of imaging. After 24 hr, an additional 50 μL of drug infused medium containing 30 nM SYTOX Green Dead Cell Stain was carefully placed into the wells on top of existing medium. The plates were immediately transferred to an IncuCyte S3 imaging system (Essen Bioscience) enclosed in an incubator set to 37° C. and 5% CO2. One image per well were captured in the phase, green, and red channels every 1.5 or 3 hr over a 24 hr period, and the ratio of SYTOX Green-positive objects (dead cells) to SYTOX Green-positive plus Sg-SAFE mCherry-positive objects (total cells) was quantified using S3 image analysis software (Essen Bioscience). For each treatment condition, the SYTOX-to-′SYTOX+mCherry′-object ratio was plotted against the 24 hr imaging interval, the Area Under the Curve (AUC) was calculated and the average AUC was plotted using Prism (GraphPad). To calculate the half-maximal effective concentration (EC50) values, the AUC curve was fit to a variable slope function comparing response to drug concentration.
(§2) Synergy experiments: For cell-based synergy experiments, cells were seeded at a density of 750 cells per 25 μL per well in four black 384-well plates (Corning) 24 hr before start of imaging. After 24 hr, an additional 25 μL of drug infused medium containing 30 nM SYTOX Green Dead Cell Stain was carefully placed into the wells on top of existing medium. The plates were immediately transferred to an IncuCyte S3 imaging system (Essen Bioscience) enclosed in an incubator set to 37° C. and 5% CO2. One image per well were captured in the phase, green, and red channels every 4 hr over a 24 hr period, and the ratio of SYTOX Green-positive objects (dead cells) to SYTOX Green-positive plus Sg-SAFE mCherry-positive objects (total cells) was quantified using S3 image analysis software (Essen Bioscience). For each treatment condition, the SYTOX-to-′SYTOX+mCherry′-object ratio was plotted against the 24 hr imaging interval, the Area Under the Curve (AUC) was calculated, and the average AUC was plotted as a function of drug concentration (for example, RSL3) using Prism (GraphPad). To calculate the half-maximal effective concentration (EC50) values, the AUC curve was fit to a variable slope function comparing response to drug concentration.

The subject of a further test is H460^C FSP1KO cells. Description: RSL3-, DHA- or FINO2-induced cell death in FSP1 knockout cells. It counts as cell-based. Here is the method: as §1
Synergy experiments: For cell-based synergy experiments, cells were seeded at a density of 750 cells per 25 μL per well in four black 384-well plates (Corning) 24 hr before start of imaging. […]

The test system of test [2] is panel of cancer cell lines of various tissue origins. Description: RSL3-induced cell death in a panel of cancer cell lines. Type of test: cell-based. The following applies: 1 μM FSEN1; lung, breast, liver, glial, bone, connective, lymphoid, skin lines. As for the experimental part: as §1, with “concentration. […]” for “concentration.”
Another test has as its system H460^C GPX4^KO cells. Description: cell-based assay of FSP1 activity, cell death (SYTOX Green/mCherry lethal fraction). The following applies: H460^C GPX4^KO cells; read-out: EC50 for triggering cell death. Here is the method: as §1
In addition to the in vitro activity assay, an orthogonal cell-based assay of FSP1 activity was also developed. […]

A further test concerns A375 melanoma cells. Description: cell death in A375 cells. It counts as cell-based. As for the experimental part: as §1, with “concentration. […]” for “concentration.”
Test [3] deals with H460^C cells. In words: DHA- and FINO2-induced cell death with FSEN1 co-treatment. It counts as cell-based. The following applies: 1 μM FSEN1. As for the experimental part: as §1, §2
The next test concerns A549 lung cancer cells. Description: RSL3-induced cell death in A549 cells. It counts as cell-based. Here is the method:
as §1, with “concentration. […]” for “concentration.”

In the case of `COc1ccc(N2CCN(Cc3cn4c(-c5ccc(Br)cc5)nnc4s3)CC2)cc1` [FSEN1], the “sensitization to GPX4 inhibitors RSL3 and ML162” value with H460^C cells [1] is “sensitized”. Moreover, the “additional sensitizing effect to DHA and FINO2 induced cell death” value in the test on H460^C FSP1KO cells (FSP1KO cells) is reported as “no additional sensitizing effect”. Besides, in the test with H460^C FSP1KO cells (H460^C FSP1KO cells), the “additional sensitization to RSL3-induced cell death” value was “did not result in any additional sensitization”. Also, in test [2], the “sensitization to RSL3-induced ferroptosis” value is recorded as “sensitized all cancer cells”. Besides, the EC50 in the test on H460^C GPX4^KO cells is 0.0694 µM. Besides, the “ferroptosis in the absence of an RSL3 co-treatment” value with A375 melanoma cells is “induced a small amount of ferroptosis”. In the test with H460^C cells [3], the “sensitization to cell death induced by DHA and FINO2” value is reported as “strongly sensitized”. In addition, the “sensitizing effect on ferroptosis induction” value with A549 lung cancer cells was “particularly large sensitizing effect”.
